Data on one compound can be found in patent publication US20230392173A1, “ENGINEERED BIOSYNTHETIC PATHWAY FOR PRODUCTION OF 4-AMINOPHENYLETHYLAMINE BY FERMENTATION” (Zymergen Inc., priority 2020, published 2023).

Holding throughout (format): cell-based
One data set has as its system Yarrowia lipolytica. The protocol:
(§1) FIG. 1: Toxicity impact of 4-APEA across a range of organisms tested in an Enzyscreen system. Various organisms are grown in media that is supplemented with the molecule of interest, and the growth of the organism is monitored over time. Analysis of the growth-time-course data allows determination of toxicity properties of the molecule of interest, such as the Minimal Inhibitory Concentration (MIC), the concentration at which growth is slowed to half (Ki), and the slope at which increased toxicity effects are observed (alpha). For FIG. 1, product toxicity was measured as a function of reduced substrate uptake with increasing product concentration.
(§2) The term “Ki,” as used herein, refers to the concentration of a chemical (e.g., 4-APEA) at which the maximal growth rate of cells in culture is slowed by half. Cultures of the cells are grown in media supplemented with varying concentrations of a chemical, and the cell growth is monitored over time. Exponential growth curve data at each chemical concentration are used to determine a specific growth rate p using the following equation:
(§3) where: X=cell concentration X0=cell concentration at time (t)=0 μ=specific growth rate. The maximal growth rate for each chemical concentration is determined (μobs) and the Ki is the chemical concentration at which the maximal growth rate has been slowed to half of the maximal growth rate in the absence of the chemical (μmax). Ki (denoted K1 below) can be determined from the equation:
(§4) where: CI=concentration of inhibitor KI=inhibition constant—inhibitor concentration where growth rate is half of maximum α=inhibition parameter to fit data μmax=the maximum growth rate of a culture in the absence of a chemical μobs=the maximum growth rate of a culture at a given concentration of a chemical
(§5) The term “alpha” (“α”), as used herein, refers to the slope at which toxicity effects are observed. Cultures of the cells are grown in media supplemented with increasing concentrations of a chemical, and the cell growth is monitored over time. Alpha can be determined from the equation: […]
(§6) One obstacle to efficient production of 4-aminophenylethylamine (4-APEA) by fermentation is that 4-APEA is toxic to many host microbes used conventionally for fermentation. FIG. 1 depicts the concentration of 4-APEA at which an organism's growth is slowed by half (Ki) and the slope (alpha) at which toxicity effects are observed over increasing 4-APEA concentrations. A larger Ki and smaller alpha indicate higher tolerance and less susceptibility to inhibition, respectively. […] K. phaffi is expected to perform similarly to K. pastoris as a production host.

A further data set relates to Bacillus licheniformis. The procedure: as §1, §2, §3, §4, §5, §6
Another data set relates to Saccharomyces cerevisiae. The procedure:
as §1, §2, §3, §4, §5, §6

Another data set deals with Komagataella phaffi. The protocol:
as §1, §2, §3, §4, §5, §6

SMILES strings stand for the structures.

`NCCc1ccc(N)cc1` [Strain 4-APEA, 4-aminophenylethylamine]: the “toxicity of 4-APEA (growth inhibition)” value in the data set with Yarrowia lipolytica is “better results”; in the data set with Bacillus licheniformis, “better results”; in the data set on Saccharomyces cerevisiae, “substantial toxicity”; with Komagataella phaffi it was “better results”.
